Test results published in patent US6583156B1 (Vernalis Research Limited, priority 1998, dated 2003).
Where a name gives a salt, the structure may show the parent alone.

In the case of `Cc1cc(C(O)c2ccsc2)c2ccccc2n1` (stereo not drawn) (as salt: salt) [Example 42, 2-Methyl-α-(3-thienyl)-4-quinolinemethanol], the melting point is reported as 200 °C (dec.).
Work on `O=C(NCc1ccccc1)c1cc(C(O)C2CCCCC2)c2ccccc2n1` (stereo not drawn) [Example 61, N-Benzyl-4-(1-cyclohexyl-1-hydroxymethyl)-2-quinolinecarboxamide] yielded a melting point of 152.8 to 153.3 °C.
In the case of `OC1(c2cc(C(F)(F)F)nc3ccccc23)CCSC1` (stereo not drawn) [Example 44, 3-(2-trifluoromethyl-4-quinolinyl)tetrahydrothiophene-3-ol], the melting point is reported as 130 to 131 °C.
In the case of `Oc1cc(C(O)(c2ccccc2)c2ccccc2)c2ccccc2n1` [Example 90, α,α-Diphenyl-2-hydroxy-4-quinolinemethanol], the melting point is reported as > 350 °C.
`COc1cc(C(O)c2ccccn2)c2cccc(C)c2n1` (stereo not drawn) [Example 67, 2-Methoxy-8-methyl-α-(2-pyridyl)-4-quinolinemethanol] showed a melting point of 126.8 to 127.6 °C.
In the case of `OC(c1cc(NCc2ccccc2)nc2ccccc12)C1CCCCC1` (stereo not drawn) [Example 79, 2-Benzylamino-α-cyclohexyl-4-quinolinemethanol], the melting point is reported as 122.5 to 123.1 °C.
With `Cc1cccc2c(C(O)c3ccccc3)cc(Br)nc12` (stereo not drawn) [Example 65, 2-Bromo-8-methyl-α-phenyl-4-quinolinemethanol] the melting point was 130.7 to 131.8 °C.
`OC(c1ccsc1)c1cc(C(F)(F)F)nc2ccccc12` (stereo not drawn) [Example 43, α-(3-Thienyl)-2-trifluoromethyl-4-quinolinemethanol] showed a melting point of 144 to 146 °C.
With `COc1cccc2c(C(O)c3ccsc3)cc(C(F)(F)F)nc12` (stereo not drawn) [Example 46, 8-Methoxy-α-(3-thienyl)-2-trifluoromethyl-4-quinolinemethanol] the melting point was 157 to 158 °C.
`FC(F)(F)c1cc(-c2ccco2)c2cccc(C(F)(F)F)c2n1` [Example 93, 2,8-Bis(trifluoromethyl)-4-(2-furanyl)quinoline] showed a melting point of 82 to 83 °C.
With `OC(Cc1cc(C(F)(F)F)nc2c(C(F)(F)F)cccc12)c1ccccc1` (stereo not drawn) [Example 9, 2,8-Bis(trifluoromethyl)-α-phenyl-4-quinolineethanol] the melting point was 111 to 112 °C.
In the case of `OC(c1cc(C(F)(F)F)nc2c(C(F)(F)F)cccc12)c1cc(C(F)(F)F)nc2c(C(F)(F)F)cccc12` [Example 8, Bis(2,8-bis(trifluoromethyl)-4-quinolinyl)methanol], the melting point is reported as 198 to 199 °C.
In the case of `OC(c1ccccc1)c1cc(Cl)nc2ccccc12` (stereo not drawn) [Example 83, 2-Chloro-α-phenyl-4-quinolinemethanol], the melting point is reported as 144 to 146 °C.
With `CN(C)c1cc(C(O)c2ccccc2)c2ccccc2n1` (stereo not drawn) [Example 35, 2-Dimethylamino-α-phenyl-4-quinolinemethanol] the melting point was 153.6 to 154.3 °C.
For `Cc1cc(C(O)c2ccccc2)c2ccccc2n1` (stereo not drawn) (as salt: salt) [Example 39, 2-Methyl-α-phenyl-4-quinolinemethanol], the melting point was 192 °C (dec.).
`COc1cc(C(O)C2CCCCC2)c2ccccc2n1.Cl` (stereo not drawn) gave a melting point of 155.9 to 156.3 °C.
Work on `OC1(c2cc(C(F)(F)F)nc3c(C(F)(F)F)cccc23)C=CCC1` (stereo not drawn) [Example 53, 1-(2,8-Bis(trifluoromethyl)-4-quinolinyl)cyclopent-2-ene-1-ol] yielded a melting point of 73 to 74 °C.
With `OCCCCC(O)c1cc(C(F)(F)F)nc2c(C(F)(F)F)cccc12` (stereo not drawn) [Example 82, 1-(2,8-Bis(trifluoromethyl)-4-quinolinyl)-5-hydroxypentanol] the melting point was 120.6 to 120.9 °C.
Compound `OC(c1ccccc1)c1cc(-c2ccccc2)nc2ccccc12` (stereo not drawn) [Example 91, 2,α-Diphenyl-4-quinolinemethanol] has a melting point of 111 to 112 °C.
With `Cc1cccc2c(C(O)c3ccccn3)cc(O)nc12` (stereo not drawn) [Example 88, 2-Hydroxy-8-methyl-α-(2-pyridyl)-4-quinolinemethanol] the melting point was 215 °C (dec.).
For `Cc1cccc2c(C(O)c3ccccn3)cc(Br)nc12` (stereo not drawn) [Example 64, 2-Bromo-8-methyl-α-(2-pyridyl)-4-quinolinemethanol], the melting point was 149 °C (dec.).
